# Experiments:
# [1] = tested on: acetylation of tubulin and induction of Hsp 70; assay: Acetylation of tubulin and induction of Hsp 70 in A2780 cells; assay type: cell-based, human; conditions: A2780 ovarian carcinoma cells, 24 h, 0-3000 nM, Western blot
# Description: Total cell lysates were prepared and analysed by SDS-PAGE. […] Hsp 70 protein was detected with an antibody from Stressgen (Cat. nr. SPA-810), followed by ECL detection. Appropriate dilutions of antibodies were incubated for either 1-2 h at room temperature or overnight at 4° C. In order to control for equal loading, blots were stripped and re-probed with mouse monoclonal anti-actin IgM (Ab-1, Oncogene Research Products). […] Protein-antibody complexes were then visualized by chemiluminescence (Pierce Chemical Co) or fluorescence (Odyssey) according to the manufacturer's instructions. The experiments were performed three times.
# [2] = tested on: acetylation of histone H3 and H4 and induction of p21waf1,cip1; assay: Acetylation of cellular HDAC 1 substrates and induction of p21waf1,cip1 in A2780 cells; assay type: cell-based, human; conditions: A2780 ovarian carcinoma cells, 24 h, 0-3000 nM, Western blot
# Description: Total cell lysates were prepared and analysed by SDS-PAGE. Levels of acetylated H3 and H4 histones, total level of H3 proteins and levels p21^waf1,cip1 protein were detected using rabbit polyclonal and mouse monoclonal antibodies, followed by enhanced chemoluminescence (ECL) detection.
# Appropriate dilutions of antibodies were incubated for either 1-2 h at room temperature or overnight at 4° C. […] Protein-antibody complexes were then visualized by chemiluminescence (Pierce Chemical Co) or fluorescence (Odyssey) according to the manufacturer's instructions. The experiments were performed three times.
# HCT-116 cells = conditions: p21waf1,cip1 deficient cells as compared to the parental HCT-116 cells; cited from earlier work
SMILES,concentration when start of induction of acetylation of tubulin and induction of Hsp 70 is observed [1],"concentration when induction of acetylation of histone H3 and H4 and induction of p21waf1,cip1 is observed [2]",increase in resistance to the HDAC inhibitor (HCT-116 cells)
Cc1[nH]c2ccccc2c1CCNCc1ccc(/C=C/C(=O)NO)cc1 [LBH-589],30 nM,–,–
O=C(NO)c1cnc(N2CCN(S(=O)(=O)c3ccc4ccccc4c3)CC2)nc1 [R306465],–,100 nM,–
"O=C(CCCCCCC(=O)Nc1ccccc1)NO [SAHA, suberoylanilide hydroxamic acid]",100 nM,3000 nM,–
CC(/C=C/C(=O)NO)=C\[C@@H](C)C(=O)c1ccc(N(C)C)cc1 [trichostatin A],–,–,6 fold

# — patent publication US20090312284A1, “HISTONE DEACETYLASE INHIBITORS WITH COMBINED ACTIVITY ON CLASS-I AND CLASS-IIB HISTONE DEACETYLASES IN COMBINATION WITH PROTEASOME INHIBITORS” (priority 2006, published 2009)
